Source: US7897781B2, “Cold menthol receptor-1 antagonists” (Janssen Pharmaceutica NV, priority 2006, dated 2011)
Values joined by “and” are separate entries in the source; they are usually repeats but may differ in a detail not shown here. Equal values may be shown once.

Molecular target: T1, canine TRPM8 (Canis lupus familiaris, UniProt Q1A7N1)
T1 construct: expressed in transfected cells
Experiment: In vitro canine TRPM8 functional assay (Ca2+-sensitive dye, icilin activation; Table 4 TRPM8 Screening)
Format: cell-based
Conditions: compound at 0.5 μM; HEK293 cells expressing canine TRPM8, icilin activation
Protocol: The functional activity of compounds of Formula (I) was determined by measuring changes in intracellular calcium concentration using a Ca^2+-sensitive fluorescent dye. The changes in fluorescent signal were monitored by a fluorescence plate reader, either a FLIPR™ (Molecular Devices) or FDSS (Hamamatsu).
HEK293 cells stably expressing canine TRPM8 were routinely grown as monolayers in Dulbecco's minimum essential medium supplemented with 10% FBS, 1 mM L-glutamine, 100 units/mL penicillin, 100 ug/mL streptomycin and 400 μg/mL G418. Cells were maintained in 5% CO2 at 37° C. At 24 hrs prior to assay, cells were seeded in clear-base poly-D-lysine coated 384-well plates (BD Biosciences, NJ, USA) at a density of 5,000 cells per well in culture medium and grown overnight in 5% CO2 at 37° C. On assay day, growth media was removed and cells were loaded with Calcium 3 Dye (Molecular Devices) for 35 min at 37° C., under 5% CO2 and then for 25 min at room temperature and atmosphere. Subsequently, cells were tested for agonist-induced increases in intracellular Ca^2+ levels using FLIPR™ or FDSS. Cells were challenged with a compound of Formula (I) (at varying concentrations) and intracellular Ca^2+ was measured for 5 min prior to the addition of icilin to all wells to achieve a final concentration which produces approximately an 80% maximal response.
Basal FI was subtracted prior to normalizing data to percent of maximal response. Curves were generated using the average of quadruplicate wells for each data point, were analyzed using nonlinear regression of either sigmoidal dose response or sigmoidal dose response (variable slope). Finally, the EC50 and IC50 values were calculated with the best-fit dose curve determined by GraphPad Prism.

T1 sequence (Q1A7N1 1-1104): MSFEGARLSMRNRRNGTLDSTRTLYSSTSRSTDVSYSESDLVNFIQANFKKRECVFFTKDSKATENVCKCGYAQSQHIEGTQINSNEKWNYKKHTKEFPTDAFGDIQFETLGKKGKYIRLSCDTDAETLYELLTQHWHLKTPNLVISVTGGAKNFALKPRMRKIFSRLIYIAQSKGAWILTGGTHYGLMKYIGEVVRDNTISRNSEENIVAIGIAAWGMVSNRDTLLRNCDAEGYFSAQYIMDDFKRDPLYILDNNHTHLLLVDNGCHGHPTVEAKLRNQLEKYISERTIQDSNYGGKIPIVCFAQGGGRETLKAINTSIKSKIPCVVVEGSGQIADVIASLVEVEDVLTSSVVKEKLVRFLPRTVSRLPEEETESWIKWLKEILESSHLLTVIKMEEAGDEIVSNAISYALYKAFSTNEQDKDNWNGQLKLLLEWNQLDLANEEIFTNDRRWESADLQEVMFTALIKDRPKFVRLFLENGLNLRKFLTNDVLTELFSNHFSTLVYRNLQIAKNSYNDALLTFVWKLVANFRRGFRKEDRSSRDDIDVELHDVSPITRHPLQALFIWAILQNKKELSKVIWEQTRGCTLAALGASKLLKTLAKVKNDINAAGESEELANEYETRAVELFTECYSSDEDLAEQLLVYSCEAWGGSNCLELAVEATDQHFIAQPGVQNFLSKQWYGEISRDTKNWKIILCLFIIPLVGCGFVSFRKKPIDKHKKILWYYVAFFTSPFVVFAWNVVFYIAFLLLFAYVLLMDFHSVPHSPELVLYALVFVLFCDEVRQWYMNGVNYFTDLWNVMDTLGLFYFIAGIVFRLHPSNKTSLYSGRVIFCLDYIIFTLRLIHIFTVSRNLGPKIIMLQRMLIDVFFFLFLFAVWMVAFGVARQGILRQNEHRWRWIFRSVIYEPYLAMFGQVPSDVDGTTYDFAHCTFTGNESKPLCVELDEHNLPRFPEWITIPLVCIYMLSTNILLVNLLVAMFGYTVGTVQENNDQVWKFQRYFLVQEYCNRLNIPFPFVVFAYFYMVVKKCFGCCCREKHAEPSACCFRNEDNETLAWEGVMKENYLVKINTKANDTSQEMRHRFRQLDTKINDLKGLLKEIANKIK

Compared with `CCOP(=O)(OCC)C(Cc1ccc(O)c(F)c1)c1sc2ccccc2c1Br` (stereo not shown) [Cpd 226], `CCOP(=O)(OCC)C(Cc1ccc(O)cc1)c1sc2ccccc2c1Br` (stereo not shown) [Cpd 324] is higher in “% I (0.5 μM)” value: 34% for the first, 54% for the second.

Compared with `CC(C)OP(=O)(OC(C)C)C(Cc1cccc(O)c1)c1sc2ccccc2c1Br` (stereo not shown) [Cpd 325], `CC(C)OP(=O)(OC(C)C)[C@H](Cc1ccc(F)c(F)c1)c1sc2ccccc2c1Br` [Cpd 235, (R)-[1-(3-Bromo-benzo[b]thiophen-2-yl)-2-(3,4-difluoro-phenyl)-ethyl]-phosphonic acid diisopropyl ester] is lower in “% I (0.5 μM)” value: 97% for the first, 93% for the second.

Going from `CC(C)OP(=O)(OC(C)C)C(Cc1cccc(C(F)(F)F)c1Cl)c1sc2ccccc2c1Cl` (stereo not shown) [Cpd 177] to `CC(C)OP(=O)(OC(C)C)[C@H](Cc1ccc(F)c(C(F)(F)F)c1)c1sc2ccccc2c1Br` [Cpd 243, (R)-[1-(3-Bromo-benzo[b]thiophen-2-yl)-2-(4-fluoro-3-trifluoromethylphenyl)-ethyl]-phosphonic acid diisopropyl ester], the “% I (0.5 μM)” value falls from 96% to 64%.

Compared with `CCOP(=O)(OCC)C(Cc1ccc(OC)c(C(F)(F)F)c1)c1sc2ccccc2c1Br` (racemic) [Cpd 152], `CCOP(=O)(OCC)C(Cc1cc(C(F)(F)F)ccc1Cl)c1sc2ccccc2c1Cl` (stereo not shown) [Cpd 274] is higher in “% I (0.5 μM)” value: 92% for the first, 95% for the second.

Compared with `COc1cc(CC(c2sc3ccccc3c2Br)P(=O)(OC(C)C)OC(C)C)ccc1F` (stereo not shown) [Cpd 157], `CC(C)CCOP(=O)(OCCC(C)C)C(Cc1ccc(F)c(F)c1)c1sc2ccccc2c1Br` (racemic) [Cpd 211] is lower in “% I (0.5 μM)” value: 98% for the first, 97% for the second.

Going from `CCOP(=O)(OCC)C(Cc1ccc(F)c(F)c1)c1sc2ccccc2c1-c1cccc(C(=O)OC)c1` (stereo not shown) [Cpd 219] to `CCOP(=O)(OCC)C(Cc1ccc(F)c(F)c1)c1sc2ccccc2c1-c1ccccc1F` (racemic) [Cpd 216], the “% I (0.5 μM)” value rises from 68% to 100%.

Compared with `CC(=O)OCCOP(=O)(OCCOC(C)=O)C(Cc1ccc(F)c(F)c1)c1sc2ccccc2c1Br` (racemic) [Cpd 213], `COCCOCCOP(=O)(OCCOCCOC)C(Cc1ccc(F)c(F)c1)c1sc2ccccc2c1Br` (stereo not shown) [Cpd 210] is lower in “% I (0.5 μM)” value: 100% for the first, 62% for the second.

Compared with `CC(C)OP(=O)(OC(C)C)C(Cc1cc(C(F)(F)F)cc(C(F)(F)F)c1)c1sc2ccccc2c1Cl` (racemic) [Cpd 171], `CCOP(=O)(OCC)C(Cc1c(F)c(F)c(O)c(F)c1F)c1sc2ccccc2c1Br` (racemic) [Cpd 228] is lower in “% I (0.5 μM)” value: 95% for the first, 94% for the second.

`CCOP(=O)(OCC)C(Cc1cccc(OC(F)(F)F)c1)c1sc2ccccc2c1Br` (racemic) [Cpd 145] was tested, and the “% I (0.5 μM)” value was 103, %.
In the case of `CCOP(=O)(OCC)C(Cc1ccc(OC(F)(F)F)cc1)c1sc2ccccc2c1Br` (stereo not shown) [Cpd 155, [1-(3-Bromo-benzo[b]thiophen-2-yl)-2-(4-trifluoromethoxyphenyl)-ethyl]-phosphonic acid diethyl ester], the “% I (0.5 μM)” value is reported as 101% and 102%.
“(R)-[1-(3-Bromo-benzo[b]thiophen-2-yl)-2-(4-trifluoromethoxy-phenyl)ethyl]-phosphonic acid diisopropyl ester [Cpd 237]” was tested, and the “% I (0.5 μM)” value was 96% and 70%.

Same assay, conditions: compound at 0.5 μM; HEK293 cells expressing canine TRPM8, icilin activation; read-out: % I (0.5 μM)

`CC(C)OP(=O)(OC(C)C)C(Cc1ccc(F)c(C(F)(F)F)c1)c1c(Br)c2ccccc2n1C(=O)OC(C)(C)C` (stereo not shown) [Cpd 327, 3-Bromo-2-[1-(diisopropoxy-phosphoryl)-2-(4-fluoro-3-trifluoromethyl-phenyl)-ethyl]-indole-1-carboxylic acid tert-butyl ester] gave an inhibition at 0.5 µM of 44%.

Same assay, conditions: compound at 1 μM; HEK293 cells expressing canine TRPM8, icilin activation

First: CCOP(=O)(OCC)C(Cc1ccc(F)c(F)c1)c1oc2cccc(F)c2c1Br (racemic) [Cpd 206]
Second: CCOP(=O)(OCC)C(Cc1cc(C(F)(F)F)cc(C(F)(F)F)c1)c1cc2ccccc2s1 (stereo not shown) [Cpd 96]
The “% I (1 μM)” value of the first is higher: 100% for the first, 92% for the second.

`CCOP(=O)(OCC)C(Cc1cccc(OC(F)(F)F)c1)c1sc2ccccc2c1C` (stereo not shown) [Cpd 57] and `CCOP(=O)(OCC)C(Cc1cccc(Cl)c1Cl)c1sc2ccccc2c1C` (stereo not shown) [Cpd 35] are the same in “% I (1 μM)” value: 100% for the first, 100% for the second.

`CC(C)OP(=O)(OC(C)C)C(Cc1cccc(C(F)(F)F)c1)c1cc2ccccc2s1` (stereo not shown) [Cpd 69] and `CCOP(=O)(OCC)C(Cc1ccc2ccccc2c1)c1sc2ccccc2c1C` (stereo not shown) [Cpd 46] are the same in “% I (1 μM)” value: 99% for the first, 99% for the second.

First: CCOP(=O)(OCC)C(Cc1cc2ccccc2s1)c1cc2ccccc2s1 (stereo not shown) [Cpd 90]
Second: CCOP(=O)(OCC)C(Cc1ccc(F)c(F)c1)c1c(C)c2ccccc2[s+]1[O-] (stereo not shown) [Cpd 118]
The “% I (1 μM)” value of the first is higher: 89% for the first, 23% for the second.

Compared with `CCOP(=O)(OCC)C(Cc1ccccc1C(F)(F)F)c1cc2ccccc2s1` (stereo not shown) [Cpd 102], `CCOP(=O)(CC(C)C)C(Cc1ccc(F)c(F)c1)c1sc2ccccc2c1C` (stereo not shown) [Cpd 36, [2-(3,4-Difluoro-phenyl)-1-(3-methyl-benzo[b]thiophene-2-yl)-ethyl]-isobutyl-phosphonic acid ethyl ester] is higher in “% I (1 μM)” value: 86% for the first, 100% for the second.

Going from `CCCP(=O)(CCC)C(OCc1ccc(F)c(F)c1)c1sc2ccccc2c1C` (stereo not shown) [Cpd 42] to `CCOP(=O)(OCC)C(Cc1ccc(F)c(F)c1)C1=C(C)c2ccccc2S1(=O)=O` (stereo not shown) [Cpd 88, [2-(3,4-Difluoro-phenyl)-1-(3-methyl-1,1-dioxo-1H-1λ^6-benzo-[b]thiophen-2-yl)-ethyl]-phosphonic acid diethyl ester], the “% I (1 μM)” value falls from 100% to 89%.

`CCOP(=O)(OCC)C(Cc1cc(F)c(Cl)cc1Cl)c1sc2ccccc2c1C` (stereo not shown) [Cpd 76] and `CCOP(=O)(CC(C)C)C(Cc1ccc(F)c(F)c1)c1sc2ccccc2c1C` (stereo not shown) [Cpd 6, [2-(3,4-Difluoro-phenyl)-1-(3-methyl-benzo[b]thiophene-2-yl)-ethyl]-isobutyl-phosphonic acid ethyl ester] are the same in “% I (1 μM)” value: 100% for the first, 100% for the second.

Compared with `CCOP(=O)(OCC)C(Cc1ccc(F)c(F)c1)c1cc2ccccc2o1` (stereo not shown) [Cpd 265], `CCOP(=O)(OCC)C(Cc1cc(C(F)(F)F)ccc1C(F)(F)F)c1sc2ccccc2c1C` (stereo not shown) [Cpd 113] is lower in “% I (1 μM)” value: 95% for the first, 25% for the second.

Going from `CCC(C)P(=O)(C(C)CC)C(Cc1ccc(F)c(F)c1)c1sc2ccccc2c1Br` (stereo not shown) [Cpd 203] to `CCOP(=O)(OCC)C(Cc1cc2c(cc1Cl)OCO2)c1sc2ccccc2c1C` (stereo not shown) [Cpd 71], the “% I (1 μM)” value rises from 96% to 98%.

Compared with `CCOP(=O)(OCC)C(Cc1c(Cl)cccc1Cl)c1cc2ccccc2s1` (stereo not shown) [Cpd 95], `CCOP(=O)(OCC)C(Cc1cccc(F)c1F)c1sc2ccccc2c1C` (stereo not shown) [Cpd 10] is higher in “% I (1 μM)” value: 89% for the first, 100% for the second.

First: CCOP(=O)(OCC)C(Cc1ccccc1Br)c1sc2ccccc2c1C (stereo not shown) [Cpd 66]
Second: [2-(3,4-Difluoro-phenyl)-1-(3-methyl-benzo[b]thiophene-2-yl)-ethyl]-[3-(4-methoxy-phenyl)-propyl]-phosphonic acid ethyl ester [Cpd 135]
The “% I (1 μM)” value of the first is higher: 100% for the first, 90% for the second.

`CCOP(=O)(OCC)C(Cc1cccc(C(F)(F)F)c1F)c1sc2ccccc2c1C` (stereo not shown) [Cpd 37] and `CCOP(=O)(OCC)C(Cc1cc(C(F)(F)F)ccc1F)c1sc2ccccc2c1C` (stereo not shown) [Cpd 67] are the same in “% I (1 μM)” value: 100% for the first, 100% for the second.

First: CCOP(=O)(OCC)C(Cc1ccccc1Cl)c1sc2ccccc2c1C (stereo not shown) [Cpd 48]
Second: CCOP(=O)(OCC)C(Cc1ccc(C(F)(F)F)cc1)c1cc2ccccc2s1 (stereo not shown) [Cpd 68]
The “% I (1 μM)” value of the first is higher: 100% for the first, 96% for the second.

First: CCOP(=O)(OCC)C(Cc1cc(C(F)(F)F)ccc1Cl)c1sc2ccccc2c1C (stereo not shown) [Cpd 99]
Second: Cc1c(C(Cc2ccc(F)c(F)c2)P(=O)(OCC(C)(C)C)OCC(C)(C)C)sc2ccccc12 (stereo not shown) [Cpd 53, [2-(3,4-Difluoro-phenyl)-1-(3-methyl-benzo[b]thiophen-2-yl)ethyl]-phosphonic acid bis-(2,2-dimethyl-propyl) ester]
The “% I (1 μM)” value of the first is higher: 100% for the first, 97% for the second.

With `Cc1c(C(Cc2ccc(F)c(F)c2)P(=O)(OC(C)C)OC(C)C)sc2ncccc12` (stereo not shown) [Cpd 34, [2-(3,4-Difluoro-phenyl)-1-(3-methyl-thieno[2,3-b]pyridin-2-yl)-ethyl]-phosphonic acid diisopropyl ester] the “% I (1 μM)” value was 101, 101%.
`CC(C)OP(=O)(OC(C)C)C(Cc1ccc(F)c(F)c1)c1sc2ccccc2c1Br` (stereo not shown) [Cpd 15, [1-(3-Bromo-benzo[b]thiophen-2-yl)-2-(3,4-difluoro-phenyl)ethyl]-phosphonic acid diisopropyl ester] was tested, and the “% I (1 μM)” value was 100% and 103%.

Same assay, conditions: compound at 5 μM; HEK293 cells expressing canine TRPM8, icilin activation

Going from `CCOP(=O)(OCC)C(Cc1c(Cl)cccc1Cl)c1cc2ccccc2s1` (stereo not shown) [Cpd 95] to `CCOP(=O)(Cc1cc2ccccc2s1)OCc1ccc(F)cc1` (stereo not shown) [Cpd 107], the “% I (5 μM)” value falls from 100% to 99%.
